# Results from US20230129359A1, “MUSCARINIC RECEPTOR 4 ANTAGONISTS AND METHODS OF USE” (Neurocrine Biosciences, Inc., priority 2020, published 2023).
# Biological target: T1, human M4 receptor (Homo sapiens, UniProt P08173)
# T1 construct: expressed in transfected cells; host or cells: CHO cells
# T1 sequence (P08173 1-479): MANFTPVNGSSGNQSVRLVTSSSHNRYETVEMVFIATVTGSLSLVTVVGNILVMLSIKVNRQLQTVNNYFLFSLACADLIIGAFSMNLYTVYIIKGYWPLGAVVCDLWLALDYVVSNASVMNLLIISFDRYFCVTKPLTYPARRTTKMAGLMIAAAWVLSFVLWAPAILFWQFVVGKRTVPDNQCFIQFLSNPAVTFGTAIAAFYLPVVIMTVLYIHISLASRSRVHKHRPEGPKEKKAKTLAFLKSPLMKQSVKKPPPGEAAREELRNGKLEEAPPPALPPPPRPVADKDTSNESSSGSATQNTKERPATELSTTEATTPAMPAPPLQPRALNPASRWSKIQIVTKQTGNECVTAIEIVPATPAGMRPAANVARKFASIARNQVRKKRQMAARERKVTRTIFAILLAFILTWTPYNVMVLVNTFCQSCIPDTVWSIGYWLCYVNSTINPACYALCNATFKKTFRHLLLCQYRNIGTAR
# Test: Radioligand ([3H]N-methylscopolamine) binding assay, membranes from CHO cells expressing human M4 receptor
# Conditions: not given
# Procedure, shortened: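 Ki values derive from displacement of tritiated N-methylscopolamine (1.5 nM) from human M4 receptor in CHO membranes. Membranes, radioligand and twelve-point compound series were incubated together at 37 °C for 90 minutes in pH 7.4 HEPES/NaCl/MgCl2/EDTA buffer. Rapid vacuum filtration over polyethylenimine-pretreated filters was followed by radioactivity counting.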
row,SMILES,Ki [nM]
1,"O=C(OC1CC2(C1)CN(Cc1ccccc1)C2)N1C2COCC1CN(c1cnc(C(F)(F)F)cn1)C2 [Compound 168, 2-benzyl-2-azaspiro[3.3]heptan-6-yl 7-[5-(trifluoromethyl)pyrazin-2-yl]-3-oxa-7,9-diazabicyclo[3.3.1]nonane-9-carboxylate]",100 to 1000

# Same assay, conditions: Ki against human M4 receptor; membranes from CHO cells; tritiated N-methylscopolamine 1.5 nM; read-out: K
row,SMILES,Ki [nM]
1,"C[C@@H]1CN(c2ccc([N+](=O)[O-])cn2)C[C@H](C)N1C(=O)OC1CC2(C1)CN(Cc1ccccc1)C2 [Compound 163, 2-benzyl-2-azaspiro[3.3]heptan-6-yl (2R,6S)-2,6-dimethyl-4-(5-nitropyridin-2-yl)piperazine-1-carboxylate]",10 to 100
2,"C[C@@H]1CN(c2ccc([N+](=O)[O-])cn2)C[C@@H](C)N1C(=O)OC1CC2(C1)CN(Cc1ccccc1)C2 [Compound 164, 2-benzyl-2-azaspiro[3.3]heptan-6-yl (2R,6R)-2,6-dimethyl-4-(5-nitropyridin-2-yl)piperazine-1-carboxylate]",100 to 1000
3,"C[C@@H]1CN(c2cncc(C(F)(F)F)n2)C[C@@H](C)N1C(=O)OC1CC2(C1)CN(Cc1ccccc1)C2 [Compound 166, 2-benzyl-2-azaspiro[3.3]heptan-6-yl (2R,6R)-2,6-dimethyl-4-[6-(trifluoromethyl)pyrazin-2-yl]piperazine-1-carboxylate]",100 to 1000
4,"O=C(OC1CC2(C1)CN(Cc1ccccc1)C2)N1C2COCC1CN(c1ncc(C(F)(F)F)cn1)C2 [Compound 167, 2-benzyl-2-azaspiro[3.3]heptan-6-yl 7-[5-(trifluoromethyl)pyrimidin-2-yl]-3-oxa-7,9-diazabicyclo[3.3.1]nonane-9-carboxylate]",10 to 100
5,"CSc1nc(N2C[C@@H](C)N(C(=O)OC3CC4(C3)CN(Cc3ccccc3)C4)[C@@H](C)C2)ncc1Br [Compound 169, 2-benzyl-2-azaspiro[3.3]heptan-6-yl (2R,6S)-4-[5-bromo-4-(methylsulfanyl)pyrimidin-2-yl]-2,6-dimethylpiperazine-1-carboxylate]",10 to 100
6,"CSc1nc(N2C[C@@H](C)N(C(=O)OC3CC4(C3)CN(Cc3ccccc3)C4)[C@H](C)C2)ncc1Br [Compound 170, 2-benzyl-2-azaspiro[3.3]heptan-6-yl (2R,6R)-4-[5-bromo-4-(methylsulfanyl)pyrimidin-2-yl]-2,6-dimethylpiperazine-1-carboxylate]",10 to 100
7,"COC(=O)c1cnc(N2C[C@@H](C)N(C(=O)OC3CC4(C3)CN(Cc3ccccc3)C4)[C@H](C)C2)nc1C(F)(F)F [Compound 171, methyl 2-[(3R,5R)-4-[({2-benzyl-2-azaspiro[3.3]heptan-6-yl}oxy)carbonyl]-3,5-dimethylpiperazin-1-yl]-4-(trifluoromethyl)pyrimidine-5-carboxylate]",< 10
8,"C[C@@H]1CN(c2cnc3ccccc3n2)C[C@H](C)N1C(=O)OC1CC2(C1)CN(Cc1ccccc1)C2 [Compound 172, 2-benzyl-2-azaspiro[3.3]heptan-6-yl (2R,6S)-2,6-dimethyl-4-(quinoxalin-2-yl)piperazine-1-carboxylate]",10 to 100
9,"COc1ccc2nc(N3C[C@@H](C)N(C(=O)OC4CC5(C4)CN(Cc4ccccc4)C5)C[C@@H]3C)cnc2c1 [Compound 173, 2-benzyl-2-azaspiro[3.3]heptan-6-yl (2R,5S)-4-(6-methoxyquinoxalin-2-yl)-2,5-dimethylpiperazine-1-carboxylate]",10 to 100
10,"Cc1nc(C#N)cnc1N1C[C@@H](C)N(C(=O)OC2CC3(C2)CN(Cc2ccccc2)C3)[C@@H](C)C1 [Compound 181, 2-benzyl-2-azaspiro[3.3]heptan-6-yl (2R,6S)-4-(5-cyano-3-methylpyrazin-2-yl)-2,6-dimethylpiperazine-1-carboxylate]",100 to 1000
11,"C[C@@H]1CN(c2cnc3ccccc3n2)C[C@@H](C)N1C(=O)OC1CC2(C1)CN(Cc1ccccc1)C2 [Compound 185, 2-benzyl-2-azaspiro[3.3]heptan-6-yl (2R,6R)-2,6-dimethyl-4-(quinoxalin-2-yl)piperazine-1-carboxylate]",100 to 1000
12,"C[C@@H]1CN(c2cnc3ccccc3n2)[C@@H](C)CN1C(=O)OC1CC2(C1)CN(Cc1ccccc1)C2 [Compound 187, 2-benzyl-2-azaspiro[3.3]heptan-6-yl (2R,5S)-2,5-dimethyl-4-(quinoxalin-2-yl)piperazine-1-carboxylate]",< 10
13,"C[C@@H]1CN(c2ncccc2C(F)(F)F)C[C@@H](C)N1C(=O)OC1CC2(C1)CN(Cc1ccccc1)C2 [Compound 190, 2-benzyl-2-azaspiro[3.3]heptan-6-yl (2R,6R)-2,6-dimethyl-4-[3-(trifluoromethyl)pyridin-2-yl)piperazine-1-carboxylate]",100 to 1000
14,"C[C@@H]1CN(c2ccc(C(F)(F)F)nc2)C[C@H](C)N1C(=O)OC1CC2(C1)CN(Cc1ccccc1)C2 [Compound 191, 2-bnezyl-2-azaspiro[3.3]heptan-6-yl (2R,6S)-2,6-dimethyl-4-[6-(trifluoromethyl)pyridin-3-yl]piperazine-1-carboxylate]",10 to 100
15,"C[C@@H]1CN(c2cncc(C(F)(F)F)n2)[C@@H](C)CN1C(=O)OC1CC2(C1)CN(Cc1ccccc1)C2 [Compound 194, 2-benzyl-2-azaspiro[3.3]heptan-6-yl (2R,5S)-2,5-dimethyl-4-[6-(trifluoromethyl)pyrazin-2-yl]piperazine-1-carboxylate]",100 to 1000

# Second part, the compound after the results:
row,Ki [nM],SMILES
1,100 to 1000,"COc1ccc2nc(N3C[C@@H](C)N(C(=O)OC4CC5(C4)CN(Cc4ccccc4)C5)C[C@H]3C)cnc2c1 [Compound 201, 2-benzyl-2-azaspiro[3.3]heptan-6-yl (2R,5R)-4-(6-methoxyquinoxalin-2-yl)-2,5-dimethylpiperazine-1-carboxylate]"
2,< 10,"C[C@@H]1CN(c2cnc(OC(F)(F)F)cn2)C[C@H](C)N1C(=O)OC1CC2(C1)CN(Cc1ccccc1)C2 [Compound 202, 2-benzyl-2-azaspiro[3.3]heptan-6-yl (2R,6S)-2,6-dimethyl-4-[5-(trifluoromethoxy)pyrazin-2-yl]piperazine-1-carboxylate]"
3,< 10,"C[C@@H]1CN(c2cnc(OC(F)(F)F)cn2)C[C@@H](C)N1C(=O)OC1CC2(C1)CN(Cc1ccccc1)C2 [Compound 203, 2-benzyl-2-azaspiro[3.3]heptan-6-yl (2R,6R)-2,6-dimethyl-4-[5-(trifluoromethoxy)pyrazin-2-yl]piperazine-1-carboxylate]"
4,< 10,"C[C@@H]1CN(c2cnc(OC(F)(F)F)cn2)[C@@H](C)CN1C(=O)OC1CC2(C1)CN(Cc1ccccc1)C2 [Compound 204, 2-benzyl-2-azaspiro[3.3]heptan-6-yl (2R,5S)-2,5-dimethyl-4-[5-(tifluoromethoxy)pyrazin-2-yl]piperazine-1-carboxylate]"
5,10 to 100,"C[C@@H]1CN(c2cnc(OC(F)(F)F)cn2)[C@H](C)CN1C(=O)OC1CC2(C1)CN(Cc1ccccc1)C2 [Compound 205, 2-benzyl-2-azaspiro[3.3]heptan-6-yl (2R,5R)-2,5-dimethyl-4-[5-(trifluoromethoxy)pyrazin-2-yl]piperazine-1-carboxylate]"
6,< 10,"C[C@@H]1CN(c2ncc3ccccc3n2)[C@@H](C)CN1C(=O)NC1CC2(C1)CN(Cc1ccccc1)C2 [Compound 212, (2R,5S)-N-{2-benzyl-2-azaspiro[3.3]heptan-6-yl}-2,5-dimethyl-4-(quinazolin-2-yl)piperazine-1-carboxamide]"
7,10 to 100,"C[C@@H]1CN(c2ncc3ccccc3n2)CCN1C(=O)NC1CC2(C1)CN(Cc1ccccc1)C2 [Compound 213, (2R)-N-{2-benzyl-2-azaspiro[3.3]heptan-6-yl}-2-methyl-4-(quinazolin-2-yl)piperazine-1-carboxamide]"
8,10 to 100,"C[C@@H]1CN(c2cnc3ccccc3n2)C[C@H](C)N1C(=O)NC1CC2(C1)CN(Cc1ccccc1)C2 [Compound 214, (2R,6S)-N-{2-benzyl-2-azaspiro[3.3]heptan-6-yl}-2,6-dimethyl-4-(quinoxalin-2-yl)piperazine-1-carboxamide]"
9,10 to 100,"COc1ccc2nc(N3C[C@@H](C)N(C(=O)NC4CC5(C4)CN(Cc4ccccc4)C5)[C@@H](C)C3)cnc2c1 [Compound 215, (2R,6S)-N-{2-benzyl-2-azaspiro[3.3]heptan-6-yl}-4-(6-methoxyquinoxalin-2-yl)-2,6-dimethylpiperazine-1-carboxamide]"
10,< 10,"C[C@@H]1CN(c2nc3ccc(C(F)(F)F)cc3s2)C[C@H](C)N1C(=O)NC1CC2(C1)CN(Cc1ccccc1)C2 [Compound 216, (2R,6S)-N-{2-benzyl-2-azaspiro[3.3]heptan-6-yl}-2,6-dimethyl-4-[6-(trifluoromethyl)-1,3-benzothiazol-2-yl)piperazine-1-carboxamide]"
11,< 10,"C[C@@H]1CN(c2nc3ccc(C(F)(F)F)cc3s2)C[C@@H](C)N1C(=O)NC1CC2(C1)CN(Cc1ccccc1)C2 [Compound 217, (2R,6R)-N-{2-benzyl-2-azaspiro[3.3]heptan-6-yl}-2,6-dimethyl-4-[6-(trifluoromethyl)-1,3-benzothiazol-2-yl]piperazine-1-carboxamide]"
12,10 to 100,"COc1ccc2nc(N3C[C@@H](C)N(C(=O)NC4CC5(C4)CN(Cc4ccccc4)C5)[C@H](C)C3)cnc2c1 [Compound 219, (2R,6R)-N-{2-benzyl-2-azaspiro[3.3]heptan-6-yl}-4-(6-methoxyquinoxalin-2-yl)-2,6-dimethylpiperazine-1-carboxamide]"
